In PMC10196118, “Evidence for broad cross-reactivity of the SARS-CoV-2 NSP12-directed CD4^+ T-cell response with pre-primed responses directed against common cold coronaviruses” (Frontiers in Immunology, 2023):

Tested on: pre-cultured PBMCs (NSP12-specific T cells)
Assay: IFN-γ ELISpot with single 15-mer peptides after 11–13 days in vitro peptide-pool T-cell expansion
Format: cell-based, human
Conditions: for peptide-specific response, donor HH-N12-18, post COVID-19 / peptide-specific response, donor HH-N12-34, post COVID-19 / peptide-specific response, donor HH-N12-35, post COVID-19 / peptide-specific response, donor HH-N12-36, post COVID-19 / peptide-specific response, donor HH-N12-37, post COVID-19 / peptide-specific T-cell response, donor HH-N12-18, post COVID-19 / peptide-specific T-cell response, donor HH-N12-34, post COVID-19 / peptide-specific T-cell response, donor HH-N12-35, post COVID-19 / peptide-specific T-cell response, donor HH-N12-36, post COVID-19 / peptide-specific T-cell response, donor HH-N12-37, post COVID-19: sample post COVID-19; for peptide-specific response, donor HH-N12-18, post COVID-19 / peptide-specific response, donor HH-N12-18, pre COVID-19 / peptide-specific response, donor HH-N12-34, post COVID-19 / peptide-specific response, donor HH-N12-34, pre COVID-19 / peptide-specific response, donor HH-N12-35, post COVID-19 / peptide-specific response, donor HH-N12-35, pre COVID-19 / peptide-specific response, donor HH-N12-36, post COVID-19 / peptide-specific response, donor HH-N12-36, pre COVID-19 / peptide-specific response, donor HH-N12-37, post COVID-19 / peptide-specific response, donor HH-N12-37, pre COVID-19: single NSP12 15-mer peptides; for peptide-specific response, donor HH-N12-18, pre COVID-19 / peptide-specific response, donor HH-N12-34, pre COVID-19 / peptide-specific response, donor HH-N12-35, pre COVID-19 / peptide-specific response, donor HH-N12-36, pre COVID-19 / peptide-specific response, donor HH-N12-37, pre COVID-19 / peptide-specific T-cell response, donor HH-N12-18, pre COVID-19 / peptide-specific T-cell response, donor HH-N12-34, pre COVID-19 / peptide-specific T-cell response, donor HH-N12-35, pre COVID-19 / peptide-specific T-cell response, donor HH-N12-36, pre COVID-19 / peptide-specific T-cell response, donor HH-N12-37, pre COVID-19: sample pre COVID-19; for peptide-specific T-cell response, donor HH-N12-18, post COVID-19 / peptide-specific T-cell response, donor HH-N12-18, pre COVID-19 / peptide-specific T-cell response, donor HH-N12-34, post COVID-19 / peptide-specific T-cell response, donor HH-N12-34, pre COVID-19 / peptide-specific T-cell response, donor HH-N12-35, post COVID-19 / peptide-specific T-cell response, donor HH-N12-35, pre COVID-19 / peptide-specific T-cell response, donor HH-N12-36, post COVID-19 / peptide-specific T-cell response, donor HH-N12-36, pre COVID-19 / peptide-specific T-cell response, donor HH-N12-37, post COVID-19 / peptide-specific T-cell response, donor HH-N12-37, pre COVID-19: single NSP12 15-mer peptide, 0 = no response

VPVVDSYYSLLMPIL [compound 47]
peptide-specific response, donor HH-N12-18, post COVID-19: 0.082 | peptide-specific response, donor HH-N12-18, pre COVID-19: 0 | peptide-specific response, donor HH-N12-34, post COVID-19: 0 | peptide-specific response, donor HH-N12-34, pre COVID-19: 0 | peptide-specific response, donor HH-N12-35, post COVID-19: 0.02 | peptide-specific response, donor HH-N12-35, pre COVID-19: 0 | peptide-specific response, donor HH-N12-36, post COVID-19: 0 | peptide-specific response, donor HH-N12-36, pre COVID-19: 0 | peptide-specific response, donor HH-N12-37, post COVID-19: 0 | peptide-specific response, donor HH-N12-37, pre COVID-19: 0

LYRNRDVDTDFVNEF [compound 147]
peptide-specific response, donor HH-N12-18, post COVID-19: 0 | peptide-specific response, donor HH-N12-18, pre COVID-19: 0 | peptide-specific response, donor HH-N12-34, post COVID-19: 0 | peptide-specific response, donor HH-N12-34, pre COVID-19: 0 | peptide-specific response, donor HH-N12-35, post COVID-19: 0 | peptide-specific response, donor HH-N12-35, pre COVID-19: 0 | peptide-specific response, donor HH-N12-36, post COVID-19: 0 | peptide-specific response, donor HH-N12-36, pre COVID-19: 0 | peptide-specific response, donor HH-N12-37, post COVID-19: 0 | peptide-specific response, donor HH-N12-37, pre COVID-19: 0

TFSNYQHEETIYNLL [compound 16]
peptide-specific response, donor HH-N12-18, post COVID-19: 0 | peptide-specific response, donor HH-N12-18, pre COVID-19: 0 | peptide-specific response, donor HH-N12-34, post COVID-19: 0 | peptide-specific response, donor HH-N12-34, pre COVID-19: 0 | peptide-specific response, donor HH-N12-35, post COVID-19: 0 | peptide-specific response, donor HH-N12-35, pre COVID-19: 0 | peptide-specific response, donor HH-N12-36, post COVID-19: 0 | peptide-specific response, donor HH-N12-36, pre COVID-19: 0 | peptide-specific response, donor HH-N12-37, post COVID-19: 0 | peptide-specific response, donor HH-N12-37, pre COVID-19: 0

MILSDDAVVCFNSTY [compound 152]
peptide-specific T-cell response, donor HH-N12-18, post COVID-19: 0 | peptide-specific T-cell response, donor HH-N12-18, pre COVID-19: 0 | peptide-specific T-cell response, donor HH-N12-34, post COVID-19: 0 | peptide-specific T-cell response, donor HH-N12-34, pre COVID-19: 0 | peptide-specific T-cell response, donor HH-N12-35, post COVID-19: 0 | peptide-specific T-cell response, donor HH-N12-35, pre COVID-19: 0 | peptide-specific T-cell response, donor HH-N12-36, post COVID-19: 0 | peptide-specific T-cell response, donor HH-N12-36, pre COVID-19: 0 | peptide-specific T-cell response, donor HH-N12-37, post COVID-19: 0 | peptide-specific T-cell response, donor HH-N12-37, pre COVID-19: 0

EDDNLIDSYFVVKRH [compound 13]
peptide-specific response, donor HH-N12-18, post COVID-19: 0 | peptide-specific response, donor HH-N12-18, pre COVID-19: 0 | peptide-specific response, donor HH-N12-34, post COVID-19: 0 | peptide-specific response, donor HH-N12-34, pre COVID-19: 0 | peptide-specific response, donor HH-N12-35, post COVID-19: 0 | peptide-specific response, donor HH-N12-35, pre COVID-19: 0 | peptide-specific response, donor HH-N12-36, post COVID-19: 0 | peptide-specific response, donor HH-N12-36, pre COVID-19: 0 | peptide-specific response, donor HH-N12-37, post COVID-19: 0 | peptide-specific response, donor HH-N12-37, pre COVID-19: 0

DFIQTTPGSGVPVVD [compound 45]
peptide-specific response, donor HH-N12-18, post COVID-19: 0 | peptide-specific response, donor HH-N12-18, pre COVID-19: 0 | peptide-specific response, donor HH-N12-34, post COVID-19: 0 | peptide-specific response, donor HH-N12-34, pre COVID-19: 0.017 | peptide-specific response, donor HH-N12-35, post COVID-19: 0 | peptide-specific response, donor HH-N12-35, pre COVID-19: 0 | peptide-specific response, donor HH-N12-36, post COVID-19: 0 | peptide-specific response, donor HH-N12-36, pre COVID-19: 0 | peptide-specific response, donor HH-N12-37, post COVID-19: 0 | peptide-specific response, donor HH-N12-37, pre COVID-19: 0

VAKHDFFKFRIDGDM [compound 20]
peptide-specific response, donor HH-N12-18, post COVID-19: 0 | peptide-specific response, donor HH-N12-18, pre COVID-19: 0 | peptide-specific response, donor HH-N12-34, post COVID-19: 0 | peptide-specific response, donor HH-N12-34, pre COVID-19: 0 | peptide-specific response, donor HH-N12-35, post COVID-19: 0 | peptide-specific response, donor HH-N12-35, pre COVID-19: 0 | peptide-specific response, donor HH-N12-36, post COVID-19: 0 | peptide-specific response, donor HH-N12-36, pre COVID-19: 0 | peptide-specific response, donor HH-N12-37, post COVID-19: 0 | peptide-specific response, donor HH-N12-37, pre COVID-19: 0

SFLNRVCGVSAARLT [compound 2]
peptide-specific response, donor HH-N12-18, post COVID-19: 0 | peptide-specific response, donor HH-N12-18, pre COVID-19: 0 | peptide-specific response, donor HH-N12-34, post COVID-19: 0 | peptide-specific response, donor HH-N12-34, pre COVID-19: 0 | peptide-specific response, donor HH-N12-35, post COVID-19: 0 | peptide-specific response, donor HH-N12-35, pre COVID-19: 0 | peptide-specific response, donor HH-N12-36, post COVID-19: 0 | peptide-specific response, donor HH-N12-36, pre COVID-19: 0 | peptide-specific response, donor HH-N12-37, post COVID-19: 0 | peptide-specific response, donor HH-N12-37, pre COVID-19: 0

DAVVCFNSTYASQGL [compound 153]
peptide-specific T-cell response, donor HH-N12-18, post COVID-19: 0 | peptide-specific T-cell response, donor HH-N12-18, pre COVID-19: 0 | peptide-specific T-cell response, donor HH-N12-34, post COVID-19: 0 | peptide-specific T-cell response, donor HH-N12-34, pre COVID-19: 0 | peptide-specific T-cell response, donor HH-N12-35, post COVID-19: 0 | peptide-specific T-cell response, donor HH-N12-35, pre COVID-19: 0 | peptide-specific T-cell response, donor HH-N12-36, post COVID-19: 0 | peptide-specific T-cell response, donor HH-N12-36, pre COVID-19: 0 | peptide-specific T-cell response, donor HH-N12-37, post COVID-19: 0 | peptide-specific T-cell response, donor HH-N12-37, pre COVID-19: 0

RLYECLYRNRDVDTD [compound 146]
peptide-specific response, donor HH-N12-18, post COVID-19: 0 | peptide-specific response, donor HH-N12-18, pre COVID-19: 0 | peptide-specific response, donor HH-N12-34, post COVID-19: 0.023 | peptide-specific response, donor HH-N12-34, pre COVID-19: 0 | peptide-specific response, donor HH-N12-35, post COVID-19: 0 | peptide-specific response, donor HH-N12-35, pre COVID-19: 0 | peptide-specific response, donor HH-N12-36, post COVID-19: 0 | peptide-specific response, donor HH-N12-36, pre COVID-19: 0 | peptide-specific response, donor HH-N12-37, post COVID-19: 0 | peptide-specific response, donor HH-N12-37, pre COVID-19: 0.02

TSTDVVYRAFDIYND [compound 6]
peptide-specific response, donor HH-N12-18, post COVID-19: 0 | peptide-specific response, donor HH-N12-18, pre COVID-19: 0 | peptide-specific response, donor HH-N12-34, post COVID-19: 0 | peptide-specific response, donor HH-N12-34, pre COVID-19: 0 | peptide-specific response, donor HH-N12-35, post COVID-19: 0 | peptide-specific response, donor HH-N12-35, pre COVID-19: 0 | peptide-specific response, donor HH-N12-36, post COVID-19: 0 | peptide-specific response, donor HH-N12-36, pre COVID-19: 0 | peptide-specific response, donor HH-N12-37, post COVID-19: 0 | peptide-specific response, donor HH-N12-37, pre COVID-19: 0
